From patent US20130195926A1, “MODULATION OF NITRIC OXIDE SIGNALING TO NORMALIZE TUMOR VASCULATURE” (The General Hospital Corporation, priority 2007, published 2013)

What was measured:
[1] = tested on: nNOS; assay: Western blot of nNOS knockdown in cultured nNOS shRNA-transfected U87 cells; type: cell-based, human
Protocol: U87MG (American Type Culture Collection HTB-14) and GL261 (generous gift from Dr. G. Yancey Gillespie at University of Alabama) tumor cells were cultured in Dulbecco's Modified Eagle's Medium with 10% fetal bovine serum at 37° C. in a humidified 5% CO2 incubator. The following short-hairpin RNAs (shRNAs) for nNOS were designed using a commercial service program for small interfering RNA (siRNA) target finder (http://www.ambion.com/techlib/misc/siRNA_finder.html): nNOS-shRNA58, CAAAGAGATCGACACCATC (sense), […] (antisense); nNOSshRNA97, CACGCATGTCTGGAAAGGC (sense), […](antisense); nNOS-shRNA150, GGTCTATCCAATGTCCACA (sense), […] (antisense). The DNA oligonucleotides consist of a 19-nucleotide sense siRNA sequence linked to its reverse complementary antisense siRNA sequence by a short spacer (TTCAAGAGA).
Each DNA oligonucleotide was prepared with nucleotide overhangs with BamHI and HindIII restriction sites added to the 5′ and 3′ end of the DNA oligonucleotides and subcloned into the pSilencer 3.1 H-1-hygro (Ambion) that allows transcription of the shRNA. These expression vectors were stably transfected into U87MG cells using LipofectAMINE 2000 (Invitrogen) following the manufacturer's instruction.
The stably transfected cells were selected with 80 μg/ml of hygromycin B. The expression of nNOS protein in U87 tumor cells and tissues was determined by'Western blot analysis. […]
Equal amounts of 60 micrograms of protein per sample were separated on 7.5% SDS polyacrylamide gels, transferred onto polyvinylidene fluoride membrane (Millipore), incubated with primary antibodies followed by secondary antibodies (the same antibodies used in immunohistochemistry studies. See Immunohistochemistry methods below), and detected using enhanced chemiluminescence (GE Healthcare) by exposure on autoradiography films (Kodak) (Xu, L., et al. 2005 Cancer Res. 65, 5711-5719; Canneliet, P., et al. 1998 Nature 394, 485-490; Xu, L., et al. 2002 Journal of Biological Chemistry 277, 11368-11374 (2002); and Xu, L., et al. 2004 Clinical Cancer Research 10, 701-707). […]

[2] = tested on: nNOS; assay: Western blot of nNOS knockdown in U87 tumors grown in cranial windows; type: in vivo; details: U87 tumors in cranial windows in Rag-1-/- mice
Protocol: The stably transfected cells were selected with 80 μg/ml of hygromycin B. The expression of nNOS protein in U87 tumor cells and tissues was determined by'Western blot analysis. Cultured U87MG cells washed with PBS and U87MG tumors homogenized by a tissue grinder were solubilized in 40 mM Tris-HCl, pH 6.8, 2% SDS, 10% glycerol, 1% β-mercaptoethanol, 0.01% bromophenol blue with one Complete Mini Protease Inhibitor Cocktail tablet (Roche Diagnostics) per 50 ml buffer.
Equal amounts of 60 micrograms of protein per sample were separated on 7.5% SDS polyacrylamide gels, transferred onto polyvinylidene fluoride membrane (Millipore), incubated with primary antibodies followed by secondary antibodies (the same antibodies used in immunohistochemistry studies. See Immunohistochemistry methods below), and detected using enhanced chemiluminescence (GE Healthcare) by exposure on autoradiography films (Kodak) (Xu, L., et al. 2005 Cancer Res. 65, 5711-5719; Canneliet, P., et al. 1998 Nature 394, 485-490; Xu, L., et al. 2002 Journal of Biological Chemistry 277, 11368-11374 (2002); and Xu, L., et al. 2004 Clinical Cancer Research 10, 701-707).
(§1) Recombination activating gene 1 (Rag-1^−/−) mice backcrossed to C57BL/6 background or severe combined immunodeficiency (SCID) mice, bred and maintained in an gnotobiotic animal facility, were used. To obtain source tumor tissue, U87 tumor cells in culture (1×10^6 cells) were injected subcutaneously into Rag-1^−/− or SCID mice matching the recipient mice. When the tumor reached about 8 mm in diameter, it was excised after euthanasia and a small piece (about 1 mm^3) of viable tumor tissue was implanted into a cranial window or subcutaneously into the calf area of the right hindlegs of the mice as previously described (Kashiwagi, S., et al. 2005 J. Clin. Invest. 115, 1816-1827; Kozin, S. V., et al. 2001 Cancer Research 61, 39-44). […]
U87 with nNOS shRNA (shRNA58, shRNA97, and shRNA150) were grown in cranial windows in Rag-1^−/− mice. Expression of nNOS in these tumors was determined by Western blot analysis. […]

[3] = tested on: U87 gliomas; assay: NO distribution in U87 gliomas by DAF-2T fluorescence (MPLSM); type: in vivo, mice; details: animals treated with L-NMMA compared to D-NMMA
Protocol: FIGS. 3A-B show microfluorographs depicting NO distribution in U87 gliomas grown in the cranial window in Rag-1^−/−. NO production was visualized by means of DAF-2T fluorescence 0, 20, 40 and 60 min after DAF-2 (0.5 mg/body) injection. Left column, micro-angiography with tetramethylrhodamine-dextran (2000 kDa). Middle column, representative DAF-2T microfluorography captured 60 min after the loading of DAF-2 in tumors. Right column, pseudocolor representation of DAF-2T microfluorographs. […] Bars indicate 100 μm. (A) NO distribution in parental U87MG (top row) or nNOS shRNA58-transfected-U87 (bottom row) tumors. […]
(§2) Vascular parameters such as functional vessel density (the total length of perfused microvessels per unit area) and vessel diameter were analyzed by tracing each vessel segment using NIH image 1.63 as described elsewhere (Kashiwagi, S., et al. 2005 J. Clin. Invest. 115, 1816-1827). Tissue distribution of NO was visualized using MPLSM and the NO-sensitive fluorescence probe 4,5-diaminofluorescein (DAF-2) (0.5 mg i.v. Daiichi Pure Chemicals Co. Ltd) as described previously (Kashiwagi, S., et al. 2005 J. Clin. Invest. 115, 1816-1827). NO converts DAF-2 to 4,5-diaminofluorescein triazolium (DAF-2T) increasing fluorescence by a factor of 200. The DAF-2 associated fluorescence images were captured 60 min after i.v. injection. […]

[4] = tested on: U87MG tumors; assay: Vessel morphology of U87 tumors in the cranial window by intravital microscopy; type: in vivo, mice; details: L-NMMA 7 mg/day by osmotic pump vs D-NMMA, SCID mice
Protocol: as §1, with “39-44). All animal procedures were carried oat following the Public Health Service Policy on Humane Care of Laboratory Animals and approved by the Institutional Animal Care and Use Committee of Massachusetts General Hospital.” for “39-44).”
Angiogenesis and vessel morphology were determined in U87 and GL261 tumors grown in the cranial windows by intravital microscopy using multiphoton laserscanning microscopy (MPLSM) or single photon fluorescence microscopy (SPFM) when tumors reached about 7 mm^2. […] Using MPLSM, five locations with 200-μm thick imaging stack were recorded for each tumor. […]
as §2

[5] = tested on: 10T1/2 cells; assay: Transwell migration of 10T1/2 cells toward HUVECs; type: cell-based
Protocol: FIGS. 13A-C show the role of the NO-sGC-cGMP pathway in perivascular cell recruitment and migration. (A) In bar graph form, cGMP production in cultured 10T1/2 cells in response to NO donor or PDE5 inhibitor. (B) In bar graph form, the migration of 10T1/2 cells in a transwell assay. 10T1/2 cell migration was assessed using Falcon HTS FluoroBlok inserts with 1 μm pores. GFP-expressing 10T1/2 cells were inoculated in the inserts, and HUVECs were inoculated in the outer well. Percent area of transwell filter covered by migrated 10T1/2 cells was determined. Medium only indicates no HUVECs in the outer well. ODQ, T-1032, Sildenafil, or Sildenafil+L-NMMA were added to the medium. *P<0.05 vs. control (HUVEC). (C) Images for transmigrated GFP-10T1/2 cells at the back side of the Fluoroblock insert after 10 hours with control vs. T-1032 treatment.
FIGS. 14A-B show the effect of PI3K inhibition on transwell migration of 10T1/2 cells toward HUVECs. 10T1/2 cell migration was assessed using Falcon HTS FluoroBlock inserts with 1 μm pores. GFP-expressing 10T1/2 cells were inoculated in the inserts and human umbilical vein endothelial cells (HUVECs) were inoculated in the outer well. (A) Images for transmigrated GFP-10T1/2 cells at the back side of the FluoroBlock insert after 16 hours. Images are 865 μm across. (B) Quantification of 10T1/2 cell transwell migration. Data are expressed as percentage relative to the control (HUVEC) migration of the same experimental batch. Medium represents no HUVECs in the outer well. LS294002 10 μM was added. n=4 each. *p<0.05 as compared to the control (HUVEC).
The effect of sGC inhibitor was next examined on 10T1/2 cell migration. […] Finally, the effect of PDE5 inhibitors on 10T1/2 cell migration was examined. […] L-NMMA abolished induction of 10T1/2 cell migration induced by Sildenafil. (Mann-Whitney U-test).
To elucidate the downstream signaling pathway of NO-dependent perivascular cell recruitment, the effect of PI3K inhibitor […] (10 μM) on the transwell 10T1/2 cell migration toward HUVECs was determined (FIG. 14A-B).

shRNA97: short-hairpin RNA for nNOS, CACGCATGTCTGGAAAGGC (sense), GCCTTTCCAGACATGCGTGTT (antisense), in pSilencer 3.1 H-1-hygro
Knockdown efficiency of nNOS in vitro [1]: 98%
Knockdown efficiency of nNOS in vivo [2]: 67%

CC(=O)O.CNC(=N)NCCC[C@H](N)C(=O)O [L-NMMA, NG-Monomethyl-L-arginine monoacetate]
DAF-associated fluorescence (NO production) [3]: abolished
vessel density [4]: decreased
vessel diameter [4]: increased
induction of 10T1/2 cell migration induced by Sildenafil ([5]; Sildenafil+L-NMMA): abolished

CCCc1nn(C)c2c(=O)[nH]c(-c3cc(S(=O)(=O)N4CCN(C)CC4)ccc3OCC)nc12 [Sildenafil]
10T1/2 cell migration ([5]; 40 nM): significantly enhanced

O=c1cc(N2CCOCC2)oc2c(-c3ccccc3)cccc12 [LY291002]
transwell 10T1/2 cell migration toward HUVECs ([5]; 10 μM, 16 hours): significantly inhibited

O=c1onc2cnc3ccccc3n12 [ODQ]
10T1/2 cell migration to HUVECs ([5]; 10μM): significantly reduced
